# Values joined by “and” are separate entries in the source; they are usually repeats but may differ in a detail not shown here. Identical values can stand only once. “Also recorded” adds a separate entry of the source. Counter-ions that a name gives are not always drawn. Marks after values point to notes of the source that are not given here.
# Key:
# isolated rat aorta = conditions: drug removed from the environment of the aortic tissue for 6 hours; cited from earlier work
# [1] = oral administration; cited from earlier work
# [2] = Relative bioavailability in man; assay type: in vivo; conditions: for AUC0−t, geom. least square mean / Cmax, geom. least square mean / tmax, median / bioequivalence to Form I: 10 mg tablet; for AUC0−t, geom. least square mean / Cmax, geom. least square mean / tmax, median / time of maximum concentration (tmax) compared to the other crystalline form: single dose; for AUC0−t, geom. least square mean: 16 volunteers; for AUC0−t, geom. least square mean / Cmax, geom. least square mean / tmax, median / time of maximum concentration (tmax) compared to the other crystalline form / bioequivalence to Form I: hydrochloride
# Protocol: Blood samples were taken at 15 points from time 0 to 24 h post-dosing and plasma concentrations of lercanidipine were determined with a stereoselective analytical method HPLC-MS/MS as described in Example 19a, as validated for man at the same concentration intervals.
# [3] = Bioavailability of crystalline forms in dog; assay type: in vivo, Beagle dogs
# Protocol: A study was carried out on six Beagle dogs to evaluate the bioavailability of crystalline Forms (I) and (II).
# Blood samples were taken at given times and plasma concentrations of lercanidipine were determined with a stereoselective analytical method HPLC-MS/MS, according to the following working conditions;
# Lercanidipine was extracted from dog plasma by means of a liquid-liquid extraction with a mixture of n-hexane and ethyl ether. The dry residue of the organic phase was taken up with a mixture of methanol and water and a liquid-phase chromatographic separation (LC) was carried out; the two enantiomers of lercanidipine were separated on a CHIROBIOTIC V column (Vancomycin) (particle size […], column size 150×4.6 mm (ASTEC, NJ, USA)) and were detected with a mass spectrometer (MS/MS) by using an electrospray technique.
# The analytical method was validated in a concentration range between 0.1 and 20 ng/ml of plasma for both enantiomers. The method has shown to be specific with an accuracy of 15%. The average concentrations of lercanidipine in the tables represent the sum of both enantiomers.
# [4] = Stability of crystalline forms; assay type: physicochemical; conditions: hydrochloride
# [5] = Hygroscopicity (DVS analysis); assay type: physicochemical; conditions: 25° C.
# Protocol: The hygroscopicity of both crystalline Forms (I) and (II) was measured with DVS analysis by means of a water absorption analyzer (SURFACE MEASUREMENT SYSTEM, Marion, Buckinghamshire, UK) according to the following working conditions: […]
# [6] = 0 h, Mean (dog 2 not included), oral 3 mg/kg
# [7] = 0.5 h, Dog 1, oral 3 mg/kg, hydrochloride, 3 mg/kg
# [8] = 0.5 h, Dog 3, oral 3 mg/kg, hydrochloride, 3 mg/kg
# [9] = 0.5 h, Mean (dog 2 not included), oral 3 mg/kg, hydrochloride, 3 mg/kg
# [10] = 1 h, Dog 1, oral 3 mg/kg, hydrochloride, 3 mg/kg
# [11] = 1 h, Dog 3, oral 3 mg/kg, hydrochloride, 3 mg/kg
# [12] = 1 h, Dog 4, oral 3 mg/kg, hydrochloride, 3 mg/kg
# [13] = 1 h, Dog 5, oral 3 mg/kg, hydrochloride, 3 mg/kg
# [14] = 1.5 h, Dog 4, oral 3 mg/kg, hydrochloride, 3 mg/kg
# [15] = 1.5 h, Dog 6, oral 3 mg/kg, hydrochloride, 3 mg/kg
# [16] = 6 h (last sampling time), Mean (dog 2 not included), oral 3 mg/kg, hydrochloride, 3 mg/kg
# [17] = Dog 2, oral 3 mg/kg, hydrochloride, 3 mg/kg
# [18] = Dog 3, oral 3 mg/kg, hydrochloride, 3 mg/kg
# [19] = Dog 4, oral 3 mg/kg, hydrochloride, 3 mg/kg
structure (smiles),measurement,setting,value
"COC(=O)C1=C(C)NC(C)=C(C(=O)OC(C)(C)CN(C)CCC(c2ccccc2)c2ccccc2)C1c1cccc([N+](=O)[O-])c1 (stereo not drawn) [Lercanidipine, methyl 1,1,N-trimethyl-N-(3,3-diphenylpropyl)-2-aminoethyl 1,4-dihydro-2,6-dimethyl-4-(3-nitrophenyl)pyridine-3,5-dicarboxylate]",response to high K+ after the drug has been removed,isolated rat aorta,attenuated
same,time of peak plasma levels following dosing,[1],2 to 3 h
"COC(=O)C1=C(C)NC(C)=C(C(=O)OC(C)(C)CN(C)CCC(c2ccccc2)c2ccccc2)C1c1cccc([N+](=O)[O-])c1 (single isomer, unassigned) [Form (I), lercanidipine hydrochloride]","AUC0−t, geom. least square mean",[2],8.82 ng·h/mL
same,"Cmax, geom. least square mean",[2],3.18 ng/mL
same,"tmax, median",[2],1.50* h
same,time of maximum concentration (tmax) compared to the other crystalline form,[2],shorter time
same,concentration in plasma of lercanidipine (S + R),"[3]; 0 h, Dog 1, oral 3 mg/kg",0.00 ng/mL
same,concentration in plasma of lercanidipine (S + R),"[3]; 0 h, Dog 2, oral 3 mg/kg",0.00 ng/mL
same,concentration in plasma of lercanidipine (S + R),"[3]; 0 h, Dog 3, oral 3 mg/kg",0.00 ng/mL
same,concentration in plasma of lercanidipine (S + R),"[3]; 0 h, Dog 4, oral 3 mg/kg",0.00 ng/mL
same,concentration in plasma of lercanidipine (S + R),"[3]; 0 h, Dog 5, oral 3 mg/kg",0.00 ng/mL
same,concentration in plasma of lercanidipine (S + R),"[3]; 0 h, Dog 6, oral 3 mg/kg",0.00 ng/mL
same,concentration in plasma of lercanidipine (S + R),[3]; [6],0.00 ng/mL
same,concentration in plasma of lercanidipine (S + R),[3]; [7],0.1 ng/mL
same,concentration in plasma of lercanidipine (S + R),"[3]; 0.5 h, Dog 2, oral 3 mg/kg, hydrochloride, 3 mg/kg",0.20 ng/mL
same,concentration in plasma of lercanidipine (S + R),[3]; [8],0.00 ng/mL
same,concentration in plasma of lercanidipine (S + R),"[3]; 0.5 h, Dog 4, oral 3 mg/kg",0.00 ng/mL
same,concentration in plasma of lercanidipine (S + R),"[3]; 0.5 h, Dog 5, oral 3 mg/kg",0.00 ng/mL
same,concentration in plasma of lercanidipine (S + R),"[3]; 0.5 h, Dog 6, oral 3 mg/kg",0.00 ng/mL
same,concentration in plasma of lercanidipine (S + R),[3]; [9],0.00 ng/mL
same,concentration in plasma of lercanidipine (S + R),[3]; [10],0.59 ng/mL
same,concentration in plasma of lercanidipine (S + R),"[3]; 1 h, Dog 2, oral 3 mg/kg, hydrochloride, 3 mg/kg",0.29 ng/mL
same,concentration in plasma of lercanidipine (S + R),[3]; [11],0.00 ng/mL
same,concentration in plasma of lercanidipine (S + R),[3]; [12],0.00 ng/mL
same,concentration in plasma of lercanidipine (S + R),[3]; [13],0.00 ng/mL
same,concentration in plasma of lercanidipine (S + R),"[3]; 1 h, Dog 6, oral 3 mg/kg",0.00 ng/mL
same,concentration in plasma of lercanidipine (S + R),"[3]; 1 h, Mean (dog 2 not included), oral 3 mg/kg, hydrochloride, 3 mg/kg",0.12 ng/mL
same,concentration in plasma of lercanidipine (S + R),"[3]; 1.5 h, Dog 3, oral 3 mg/kg, hydrochloride, 3 mg/kg",0.32 ng/mL
same,concentration in plasma of lercanidipine (S + R),[3]; [14],0.00 ng/mL
same,concentration in plasma of lercanidipine (S + R),[3]; [15],0.00 ng/mL
same,concentration in plasma of lercanidipine (S + R),"[3]; 1.5 h, Mean (dog 2 not included), oral 3 mg/kg, hydrochloride, 3 mg/kg",0.70 ng/mL
same,concentration in plasma of lercanidipine (S + R),"[3]; 2 h, Dog 3, oral 3 mg/kg, hydrochloride, 3 mg/kg",0.94 ng/mL
same,concentration in plasma of lercanidipine (S + R),"[3]; 2 h, Dog 4, oral 3 mg/kg, hydrochloride, 3 mg/kg",0.35 ng/mL
same,concentration in plasma of lercanidipine (S + R),"[3]; 2 h, Dog 6, oral 3 mg/kg, hydrochloride, 3 mg/kg",0.28 ng/mL
same,concentration in plasma of lercanidipine (S + R),"[3]; 3 h, Dog 3, oral 3 mg/kg, hydrochloride, 3 mg/kg",0.92 ng/mL
same,concentration in plasma of lercanidipine (S + R),[3]; [16],8.5 ± 6.5 ng/mL and 8.50 ng/mL
same,concentration in plasma of lercanidipine (S + R),"[3]; 6 h, Dog 1, oral 3 mg/kg, hydrochloride, 3 mg/kg",0.80 ng/mL
same,concentration in plasma of lercanidipine (S + R),"[3]; 6 h, Dog 5, oral 3 mg/kg, hydrochloride, 3 mg/kg",9.73 ng/mL
same,concentration in plasma of lercanidipine (S + R),"[3]; 6 h, Dog 6, oral 3 mg/kg, hydrochloride, 3 mg/kg",17.83 ng/mL
same,Tmax,"[3]; Dog 1, oral 3 mg/kg, hydrochloride, 3 mg/kg",2.00 h
same,Tmax,[3]; [17],4.00 h
same,Tmax,[3]; [18],6.00 h
same,Tmax,[3]; [19],3.00 h
same,Tmax,"[3]; Dog 5, oral 3 mg/kg, hydrochloride, 3 mg/kg",3.00 h
same,Tmax,"[3]; Mean (n = 5, dog 2 not included), oral 3 mg/kg, hydrochloride, 3 mg/kg",4.00 h
same,stability,[4],good stability; also recorded: stable
same,mass change,[5]; 0% RH,−0.3%
same,mass change,[5]; 95% RH,+0.15%
"COC(=O)C1=C(C)NC(C)=C(C(=O)OC(C)(C)CN(C)CCC(c2ccccc2)c2ccccc2)C1c1cccc([N+](=O)[O-])c1 (single isomer, unassigned) [Form (II), lercanidipine hydrochloride]",bioequivalence to Form I,[2],not bioequivalent
same,bioequivalence to Form I,[2]; listed as Form II,non equivalent
same,"AUC0−t, geom. least square mean",[2],10.36 ng·h/mL
same,"Cmax, geom. least square mean",[2],3.22 ng/mL
same,"tmax, median",[2],2.50* h
same,"tmax Point Estimate (T/R), median difference","[2]; T = Form (II) tablet, R = Form (I) tablet (Zanedip 10 mg)",0.75** h
same,time of maximum concentration (tmax) compared to the other crystalline form,[2],delayed
same,concentration in plasma of lercanidipine (S + R),"[3]; 0 h, Dog 1, oral 3 mg/kg",0.00 ng/mL
same,concentration in plasma of lercanidipine (S + R),"[3]; 0 h, Dog 2, oral 3 mg/kg",0.00 ng/mL
same,concentration in plasma of lercanidipine (S + R),"[3]; 0 h, Dog 3, oral 3 mg/kg",0.00 ng/mL
same,concentration in plasma of lercanidipine (S + R),"[3]; 0 h, Dog 4, oral 3 mg/kg",0.00 ng/mL
same,concentration in plasma of lercanidipine (S + R),"[3]; 0 h, Dog 5, oral 3 mg/kg",0.00 ng/mL
same,concentration in plasma of lercanidipine (S + R),"[3]; 0 h, Dog 6, oral 3 mg/kg",0.00 ng/mL
same,concentration in plasma of lercanidipine (S + R),[3]; [6],0.00 ng/mL
same,concentration in plasma of lercanidipine (S + R),[3]; [7],0.00 ng/mL
same,concentration in plasma of lercanidipine (S + R),[3]; [8],6.99 ng/mL
same,concentration in plasma of lercanidipine (S + R),"[3]; 0.5 h, Dog 4, oral 3 mg/kg",0.00 ng/mL
same,concentration in plasma of lercanidipine (S + R),"[3]; 0.5 h, Dog 5, oral 3 mg/kg",0.00 ng/mL
same,concentration in plasma of lercanidipine (S + R),"[3]; 0.5 h, Dog 6, oral 3 mg/kg",0.00 ng/mL
same,concentration in plasma of lercanidipine (S + R),[3]; [9],1.40 ng/mL
same,concentration in plasma of lercanidipine (S + R),[3]; [10],0.00 ng/mL
same,concentration in plasma of lercanidipine (S + R),[3]; [11],16.61 ng/mL
same,concentration in plasma of lercanidipine (S + R),[3]; [12],5.50 ng/mL
same,concentration in plasma of lercanidipine (S + R),[3]; [13],3.28 ng/mL
same,concentration in plasma of lercanidipine (S + R),"[3]; 1 h, Dog 6, oral 3 mg/kg",0.00 ng/mL
same,concentration in plasma of lercanidipine (S + R),"[3]; 1.5 h, Dog 1, oral 3 mg/kg, hydrochloride, 3 mg/kg",0.23 ng/mL
same,concentration in plasma of lercanidipine (S + R),[3]; [14],35.43 ng/mL
same,concentration in plasma of lercanidipine (S + R),[3]; [15],3.49 ng/mL
same,concentration in plasma of lercanidipine (S + R),"[3]; 2 h, Dog 1, oral 3 mg/kg, hydrochloride, 3 mg/kg",7.63 ng/mL
same,concentration in plasma of lercanidipine (S + R),"[3]; 3 h, Dog 4, oral 3 mg/kg, hydrochloride, 3 mg/kg",28.36 ng/mL
same,concentration in plasma of lercanidipine (S + R),"[3]; 3 h, Dog 5, oral 3 mg/kg, hydrochloride, 3 mg/kg",40.57 ng/mL
same,concentration in plasma of lercanidipine (S + R),"[3]; 3 h, Dog 6, oral 3 mg/kg, hydrochloride, 3 mg/kg",14.10 ng/mL
same,concentration in plasma of lercanidipine (S + R),"[3]; 4 h, Dog 3, oral 3 mg/kg, hydrochloride, 3 mg/kg",14.10 ng/mL
same,concentration in plasma of lercanidipine (S + R),"[3]; 4 h, Dog 5, oral 3 mg/kg, hydrochloride, 3 mg/kg",23.66 ng/mL
same,concentration in plasma of lercanidipine (S + R),[3]; [16],10.9 ± 6.8 ng/mL
same,concentration in plasma of lercanidipine (S + R),"[3]; 6 h, Dog 2, oral 3 mg/kg, hydrochloride, 3 mg/kg",4.50 ng/mL
same,Tmax,[3]; [17],1.50 h
same,Cmax,[3]; [18],19.78 ng/mL
same,Cmax,[3]; [19],52.64 ng/mL
same,Cmax,"[3]; Dog 6, oral 3 mg/kg, hydrochloride, 3 mg/kg",18.56 ng/mL
same,stability,[4],good stability; also recorded: stable
same,mass variation,[5]; whole RH range tested (0-95%),< 0.05%

# From patent US6852737B2 (Recordati Ireland Limited, priority 2001, dated 2005)
